Laboratory results published in PubChem BioAssay AID624258 (Broad Institute, 2012).
Activity calls are given as the source filed them. The rule behind the calls is not given here.

Experiment: SKN7 mediated toxicity in Saccharomyces cerevisiae, growth rescue counterscreen, dose confirmation (AID 624258);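 note: growth read after three days of incubation at 30 °C; 0% = median of neutral control wells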
Conditions: S. cerevisiae SKN7-toxicity growth rescue, plate reader

SMILES | growth rescue activity (at 19.5 µM (top of the series)) | growth rescue activity (at 6.8 µM (top of the series))
COc1cnc(-c2ccccn2)nc1Sc1ccc(C)cc1 | -65.7% (inactive) | 
CN(C)CCCNC(=O)c1ccc(-c2nc(-c3ccc(Cl)cc3)cs2)cc1 | 0.817% (inactive) | 
CN(C)c1ccc(C=c2c3ccccc3n3c2c2c([n+]3C)CCCC2)cc1 | -74.1% (inactive) | 
CCCCNC(=S)N/N=C1\CCCCc2ccccc21 | -53.8% (inactive) | 
N#Cc1c(N)nc(SCc2ccccc2)c(C#N)c1-c1ccco1 | -27.7% (inactive) | 
O=S1(=O)CCN2C(=N1)Sc1c2ccc2c1CCCC2 | 5.5% (inactive) | 
CCN1/C(=C/c2sc(-c3ccccc3C)c[n+]2C)Sc2ccccc21 | -60.6% (inactive) | 
COC(=O)COC(=O)c1ccccc1NC(=O)c1ccccc1 | -40.9% (inactive) | 
CCC(C(=O)c1ccc2ncccc2c1)c1ccccc1 (stereo not drawn) | -32.2% (inactive) | 
CCCC(=O)NC(c1ccc(N(C)C)cc1)c1ccc2cccnc2c1O (stereo not drawn) | -7.33% (inactive) | 
CCC(Oc1ccc(Br)cc1Cl)C(=O)Nc1nnc(C2CC2)s1 (stereo not drawn) | -50.3% (inactive) | 
O=C(COc1ccc(Cl)cc1)Nc1cccc(-c2ccc3nncn3n2)c1 | 13% (inactive) | 
Cc1csc(NC(=O)C(C)Oc2ccc(Cl)cc2C)n1 (stereo not drawn) | 10.9% (inactive) | 
Clc1ccc(CSC(Cn2ccnc2)c2ccc(Cl)cc2Cl)cc1 (stereo not drawn) | -73% (inactive) | 
Cn1cc(SCC(=O)Nc2nc3ccccc3s2)c2ccccc21 | -62.4% (inactive) | 
CCCCNc1c(-c2cccc(Sc3ccc(OC)cc3)c2)nc2ccccn12 | -86.4% (inactive) | 
O=C(Nc1nnc(-c2ccccc2)o1)c1ccc(Cl)cc1 | -46.1% (inactive) | 
CC1=NN(C(N)=S)C(=O)C1N=Nc1cccc(Cl)c1C (stereo not drawn) | -42.1% (inactive) | 
COc1cccc2c1C(=O)c1c(O)c3c(c(O)c1C2=O)CC(O)(C(C)=NNC(=O)c1ccc(Cl)c(Cl)c1)CC3OC1CC(N)C(O)C(C)O1 (stereo not drawn) | 23.8% (inactive) | 
CCCCCCn1c(=O)c(C(=O)Nc2ncccc2C)c(O)c2ccccc21 | -12.8% (inactive) | 
C=CCNc1nc(-c2ccccn2)nnc1-c1ccccc1 | -28.2% (inactive) | 
CCCCCCCCCCCCCC(=O)NO | -69.6% (inactive) | 
Cc1ccc(S(=O)(=O)/N=C2/C=C(Sc3ncn[nH]3)C(=O)c3ccccc32)cc1 | 20.8% (inactive) | 
Cc1nn(CCC#N)c(N)c1C1(O)C(=O)Nc2c(Cl)cc(Cl)cc21 (stereo not drawn) | 12.9% (inactive) | 

SMILES | growth rescue activity (at 19.5 µM (top of the series)) | growth rescue activity (at 6.8 µM (top of the series))
FC(F)(F)c1cccc(N2CCc3cn[nH]c32)c1 | -94.6% (inactive) | 
Nc1ncnc(Sc2ccccc2)c1[N+](=O)[O-] | 21.4% (inactive) | 
CC(C)(C)n1nc(Cc2cccc3ccccc23)c2c(N)ncnc21 |  | -49.1% (inactive)
Cc1cc(N2CCN(c3ccccc3)CC2)nc(-c2ccccc2O)n1 | -42.6% (inactive) | 
CCn1nc(/C=C/c2ccccc2)nc2c(=O)n(C)c(=O)nc1-2 | -44.4% (inactive) | 
COC(=O)C1=C(C)NC(C)=C(C(=O)OCC(C)C)C1c1ccccc1[N+](=O)[O-] (stereo not drawn) | -47.9% (inactive) | 
CC(C)NC(=O)NC(=O)COC(=O)c1ccc([N+](=O)[O-])cc1Cl |  | -6.28% (inactive)
c1ccc(Nc2nc(-c3ccccn3)cs2)cc1 | -0.973% (inactive) | 
Cc1ccc2c(c1C)-c1c(ccc(C)c1C)C(=O)C2=O |  | -4.89% (inactive)
Clc1ccccc1C(c1ccccc1)(c1ccccc1)n1ccnc1 | -48.3% (inactive) | 
CCCCCC1CCC(c2n[nH]c(=S)n2C)CC1 (stereo not drawn) | -58.3% (inactive) | 
C/C(=N\NC(=O)COc1ccccc1-c1ccccc1)c1ccccn1 | -11.5% (inactive) | 
Cn1c(-c2ccccc2)cnc1NCc1ccc(-c2ccccc2)cc1 | -67.3% (inactive) | 
CCOc1ccc(N/N=C(/C#N)C(N)=O)cc1 | -49.6% (inactive) | 
O=C(N/N=C/c1ccc[nH]1)c1sc2ccccc2c1Cl | -72.2% (inactive) | 
CNc1ccc2oc(C[C@H]3O[C@@]4(CC[C@H]3C)O[C@H]([C@H](C)C(=O)c3ccc[nH]3)[C@H](C)C[C@H]4C)nc2c1C(=O)O | -78.1% (inactive) | 
O=C(Nc1ccc(Br)c(C(F)(F)F)c1)c1ccccc1 | -78.2% (inactive) | 
O=C(c1ccccc1)c1ccc(Cn2cc(-c3ccccc3)nn2)cc1 | 19.2% (inactive) | 
O=C(Nc1ccc(Cl)cc1)NC1CCCCC1Cc1ccco1 (stereo not drawn) |  | 76.3% (inactive)
Cc1cc(C(F)(F)F)n2[nH]c(=O)c(N=Nc3ccccc3)c2n1 | -58.6% (inactive) | 
CC(CNC(=O)COc1ccccc1)OC(=O)Nc1ccc(Cl)c(Cl)c1 (stereo not drawn) | -93.2% (inactive) | 
COc1cccc(/C=N/Nc2ncnc3scc(-c4ccccc4)c23)c1O | -79.1% (inactive) | 
O=C(OCC(=O)C12CC3CC(CC(C3)C1)C2)c1ccc(O)cc1 | -10.8% (inactive) | 
FC(F)(F)c1nc(SCc2ccc(Cl)cc2Cl)n[nH]1 | -80.8% (inactive) | 
